Among the data in patent US20110269811A1, “INHIBITORS OF SEMICARBAZIDE-SENSITIVE AMINE OXIDASE (SSAO) AND VAP-1 MEDIATED ADHESION USEFUL FOR TREATMENT AND PREVENTION OF DISEASES” (priority 2006, published 2011) are inhibition values, retold here.

Structures are written as SMILES.

For assay [1], the target named is T1, κ (KOP) (Cavia porcellus, UniProt P41144).
T1 construct: cerebellum; from tissue; host or cells: guinea-pig cerebellum
Put plainly: Receptor binding screen, [^3H]U 69593, guinea-pig cerebellum. Particulars: 10 uM Concentration of Compound I-1-Z; read-out: Mean Value, percent inhibition of control specific binding: κ (KOP). As to the method: (§1) For Table 4 below, the specific ligand binding to the receptors is defined as the difference between the total binding and the nonspecific binding determined in the presence of an excess of unlabelled ligand. The results are expressed as a percent inhibition of control specific binding obtained in the presence of Compound I-1-Z. The IC50 values (concentration causing a half-maximal inhibition of control specific binding) and Hill coefficients (nH) were determined by non-linear regression analysis of the competition curves using Hill equation curve fitting. The inhibition constants (Ki) were calculated from the Cheng Prusoff equation (Ki=IC50/(1+(L/KD)), where L=concentration of radioligand in the assay, and KD=affinity of the radioligand for the receptor). In each experiment, the respective reference compound was tested concurrently with Compound I-1-Z in order to assess the assay suitability.

Assay [2] concerns the target T2, AT2 (h) (Homo sapiens, UniProt P50052).
T2 construct: expressed in transfected cells; host or cells: Hela cells
Put plainly: Receptor binding screen, [^125I]CGP 42112A. The conditions noted are these: 10 uM Concentration of Compound I-1-Z; read-out: Mean Value, percent inhibition of control specific binding: AT2 (h).

Assay [3] deals with T3, CCR1 (h) (Homo sapiens, UniProt P32246).
T3 construct: expressed in transfected cells; host or cells: HEK-293 cells
T3 sequence (P32246 whole entry): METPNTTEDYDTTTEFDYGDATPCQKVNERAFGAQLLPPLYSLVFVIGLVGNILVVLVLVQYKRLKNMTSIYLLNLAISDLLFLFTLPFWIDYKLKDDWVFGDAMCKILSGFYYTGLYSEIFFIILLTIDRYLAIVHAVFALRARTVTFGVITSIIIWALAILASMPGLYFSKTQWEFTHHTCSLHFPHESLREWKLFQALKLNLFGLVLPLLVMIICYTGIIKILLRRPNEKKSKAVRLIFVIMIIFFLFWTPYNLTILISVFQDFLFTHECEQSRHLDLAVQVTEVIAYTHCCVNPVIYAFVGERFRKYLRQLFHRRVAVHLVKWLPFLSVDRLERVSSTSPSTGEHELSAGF
Put plainly: Receptor binding screen, [^125I]MIP-1α. The conditions noted are these: 10 uM Concentration of Compound I-1-Z; read-out: Mean Value, percent inhibition of control specific binding: CCR1 (h).

For assay [4], the target named is T4, B2 (h) (Homo sapiens, UniProt P30411).
T4 construct: expressed in transfected cells; host or cells: CHO cells
Put plainly: Receptor binding screen, [^3H]bradykinin. The conditions noted are these: 10 uM Concentration of Compound I-1-Z; read-out: Mean Value, percent inhibition of control specific binding: B2 (h).

Assay [5] has as its target T5, NE transporter (h) (Homo sapiens, UniProt P23975).
T5 construct: expressed in transfected cells; host or cells: CHO cells
Nature of the assay: Receptor binding screen, [^3H]nisoxetine. The conditions noted are these: 10 uM Concentration of Compound I-1-Z; read-out: Mean Value, percent inhibition of control specific binding: NE transporter (h).

For assay [6], the target named is T6, D1 (h) (Homo sapiens, UniProt P21728).
T6 construct: expressed in transfected cells; host or cells: CHO cells
T6 sequence (P21728 whole entry): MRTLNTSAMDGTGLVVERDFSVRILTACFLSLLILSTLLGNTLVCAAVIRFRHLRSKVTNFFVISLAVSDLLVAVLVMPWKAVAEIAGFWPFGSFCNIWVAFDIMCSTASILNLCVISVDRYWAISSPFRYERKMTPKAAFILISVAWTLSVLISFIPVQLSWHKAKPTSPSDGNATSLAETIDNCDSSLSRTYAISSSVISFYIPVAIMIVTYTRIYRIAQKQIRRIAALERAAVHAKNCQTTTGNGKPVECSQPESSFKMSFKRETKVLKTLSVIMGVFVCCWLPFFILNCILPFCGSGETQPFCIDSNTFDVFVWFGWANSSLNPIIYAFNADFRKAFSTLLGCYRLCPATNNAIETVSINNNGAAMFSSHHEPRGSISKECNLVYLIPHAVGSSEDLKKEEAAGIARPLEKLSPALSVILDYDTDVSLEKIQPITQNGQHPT
Put plainly: Receptor binding screen, [^3H]SCH 23390. Particulars: 10 uM Concentration of Compound I-1-Z; read-out: Mean Value, percent inhibition of control specific binding: D1 (h).

Assay [7] addresses T7, 5-HT transporter (h) (Homo sapiens, UniProt P31645).
T7 construct: expressed in transfected cells; host or cells: CHO cells
Nature of the assay: Receptor binding screen, [^3H]imipramine. Particulars: 10 uM Concentration of Compound I-1-Z; read-out: Mean Value, percent inhibition of control specific binding: 5-HT transporter (h).

Assay [8] addresses T8, 5-HT1A (h) (Homo sapiens, UniProt P08908).
T8 construct: expressed in transfected cells; host or cells: HEK-293 cells
Nature of the assay: Receptor binding screen, [^3H]8-OH-DPAT. The conditions noted are these: 10 uM Concentration of Compound I-1-Z; read-out: Mean Value, percent inhibition of control specific binding: 5-HT1A (h).

Assay [9] concerns the target T9, DA transporter (h) (Homo sapiens, UniProt Q01959).
T9 construct: expressed in transfected cells; host or cells: CHO cells
Nature of the assay: Receptor binding screen, [^3H]BTCP. Particulars: 10 uM Concentration of Compound I-1-Z; read-out: Mean Value, percent inhibition of control specific binding: DA transporter (h).

The target in assay [10] is T10, M1 (h) (Homo sapiens, UniProt P11229).
T10 construct: expressed in transfected cells; host or cells: CHO cells
T10 sequence (P11229 whole entry): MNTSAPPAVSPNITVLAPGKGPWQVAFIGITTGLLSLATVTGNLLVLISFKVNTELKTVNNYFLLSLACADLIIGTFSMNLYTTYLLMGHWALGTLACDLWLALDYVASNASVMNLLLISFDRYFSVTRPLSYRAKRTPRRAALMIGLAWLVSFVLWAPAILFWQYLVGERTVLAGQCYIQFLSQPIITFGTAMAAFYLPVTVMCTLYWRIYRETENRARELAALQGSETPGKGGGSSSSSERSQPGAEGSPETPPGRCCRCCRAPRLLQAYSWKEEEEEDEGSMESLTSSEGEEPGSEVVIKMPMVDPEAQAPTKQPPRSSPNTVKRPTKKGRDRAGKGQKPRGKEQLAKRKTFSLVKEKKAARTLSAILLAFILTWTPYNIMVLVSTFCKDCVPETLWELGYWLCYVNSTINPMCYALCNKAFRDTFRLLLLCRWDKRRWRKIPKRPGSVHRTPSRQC
Nature of the assay: Receptor binding screen, [^3H]pirenzepine. Particulars: 10 uM Concentration of Compound I-1-Z; read-out: Mean Value, percent inhibition of control specific binding: M1 (h). As to the method: as §1

Assay [11] has as its target T11, AT1 (h) (Homo sapiens, UniProt P30556).
T11 construct: expressed in transfected cells; host or cells: CHO cells
Put plainly: Receptor binding screen, [^125I][Sar^1,Ile^8]-ATII. The conditions noted are these: 10 uM Concentration of Compound I-1-Z; read-out: Mean Value, percent inhibition of control specific binding: AT1 (h).

T2 sequence (P50052 whole entry): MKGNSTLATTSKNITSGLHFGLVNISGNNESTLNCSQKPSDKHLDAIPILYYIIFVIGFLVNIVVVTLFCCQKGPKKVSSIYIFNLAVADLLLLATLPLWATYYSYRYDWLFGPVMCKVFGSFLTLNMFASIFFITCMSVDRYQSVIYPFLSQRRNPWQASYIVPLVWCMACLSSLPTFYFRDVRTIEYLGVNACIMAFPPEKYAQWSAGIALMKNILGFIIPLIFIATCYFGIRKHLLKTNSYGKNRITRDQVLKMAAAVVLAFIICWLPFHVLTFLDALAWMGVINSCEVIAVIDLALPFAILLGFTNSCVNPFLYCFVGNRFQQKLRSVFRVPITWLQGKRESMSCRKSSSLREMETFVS
T9 sequence (Q01959 whole entry): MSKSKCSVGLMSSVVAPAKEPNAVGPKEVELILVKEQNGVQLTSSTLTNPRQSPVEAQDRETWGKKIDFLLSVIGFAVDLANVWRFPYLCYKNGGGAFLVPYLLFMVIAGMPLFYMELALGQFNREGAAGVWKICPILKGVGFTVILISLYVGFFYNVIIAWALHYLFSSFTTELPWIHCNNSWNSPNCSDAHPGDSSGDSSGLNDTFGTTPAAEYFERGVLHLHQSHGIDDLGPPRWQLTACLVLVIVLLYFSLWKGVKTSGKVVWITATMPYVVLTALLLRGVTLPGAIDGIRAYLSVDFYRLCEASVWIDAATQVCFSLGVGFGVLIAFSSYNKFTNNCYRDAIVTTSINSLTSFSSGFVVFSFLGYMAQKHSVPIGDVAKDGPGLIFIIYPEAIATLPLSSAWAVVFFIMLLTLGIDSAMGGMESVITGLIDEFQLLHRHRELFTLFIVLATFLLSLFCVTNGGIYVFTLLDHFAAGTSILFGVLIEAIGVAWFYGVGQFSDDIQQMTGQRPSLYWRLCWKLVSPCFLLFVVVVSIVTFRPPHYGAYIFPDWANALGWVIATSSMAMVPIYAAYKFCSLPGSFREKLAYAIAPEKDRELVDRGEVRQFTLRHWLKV
T7 sequence (P31645 whole entry): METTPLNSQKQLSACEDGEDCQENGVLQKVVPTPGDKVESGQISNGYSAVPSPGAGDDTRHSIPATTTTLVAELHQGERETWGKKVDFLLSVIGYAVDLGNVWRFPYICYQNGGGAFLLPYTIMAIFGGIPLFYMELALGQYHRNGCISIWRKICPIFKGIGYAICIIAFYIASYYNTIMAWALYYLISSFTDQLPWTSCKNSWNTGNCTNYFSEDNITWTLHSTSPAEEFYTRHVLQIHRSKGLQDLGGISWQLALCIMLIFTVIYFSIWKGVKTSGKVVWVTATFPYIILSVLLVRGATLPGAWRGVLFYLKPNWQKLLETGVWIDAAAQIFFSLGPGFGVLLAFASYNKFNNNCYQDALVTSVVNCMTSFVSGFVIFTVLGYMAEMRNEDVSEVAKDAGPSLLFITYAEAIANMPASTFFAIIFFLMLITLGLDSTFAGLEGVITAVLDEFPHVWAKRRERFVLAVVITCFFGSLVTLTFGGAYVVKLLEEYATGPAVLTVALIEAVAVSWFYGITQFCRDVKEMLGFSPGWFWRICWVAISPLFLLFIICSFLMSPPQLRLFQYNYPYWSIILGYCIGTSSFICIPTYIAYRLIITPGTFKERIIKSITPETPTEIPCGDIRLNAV
T11 sequence (P30556 whole entry): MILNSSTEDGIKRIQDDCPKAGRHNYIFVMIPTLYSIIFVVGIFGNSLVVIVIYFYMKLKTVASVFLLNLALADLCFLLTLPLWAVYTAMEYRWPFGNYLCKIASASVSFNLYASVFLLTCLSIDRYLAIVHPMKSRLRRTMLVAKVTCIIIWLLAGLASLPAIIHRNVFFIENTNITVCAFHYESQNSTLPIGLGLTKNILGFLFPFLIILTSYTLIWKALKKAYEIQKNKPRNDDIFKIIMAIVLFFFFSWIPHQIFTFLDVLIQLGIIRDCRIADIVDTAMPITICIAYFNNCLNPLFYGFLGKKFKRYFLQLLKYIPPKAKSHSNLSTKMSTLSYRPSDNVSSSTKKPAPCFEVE
T8 sequence (P08908 whole entry): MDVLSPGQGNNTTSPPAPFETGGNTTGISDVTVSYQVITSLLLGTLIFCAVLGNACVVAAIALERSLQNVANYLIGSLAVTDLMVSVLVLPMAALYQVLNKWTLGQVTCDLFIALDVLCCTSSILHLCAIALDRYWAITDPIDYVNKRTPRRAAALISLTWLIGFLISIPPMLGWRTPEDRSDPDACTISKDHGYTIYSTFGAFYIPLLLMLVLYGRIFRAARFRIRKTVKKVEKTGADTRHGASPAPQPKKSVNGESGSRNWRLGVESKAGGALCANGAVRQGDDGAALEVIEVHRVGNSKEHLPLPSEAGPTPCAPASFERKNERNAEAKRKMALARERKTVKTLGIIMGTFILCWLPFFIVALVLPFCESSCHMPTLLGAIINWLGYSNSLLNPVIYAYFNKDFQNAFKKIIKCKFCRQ
T5 sequence (P23975 whole entry): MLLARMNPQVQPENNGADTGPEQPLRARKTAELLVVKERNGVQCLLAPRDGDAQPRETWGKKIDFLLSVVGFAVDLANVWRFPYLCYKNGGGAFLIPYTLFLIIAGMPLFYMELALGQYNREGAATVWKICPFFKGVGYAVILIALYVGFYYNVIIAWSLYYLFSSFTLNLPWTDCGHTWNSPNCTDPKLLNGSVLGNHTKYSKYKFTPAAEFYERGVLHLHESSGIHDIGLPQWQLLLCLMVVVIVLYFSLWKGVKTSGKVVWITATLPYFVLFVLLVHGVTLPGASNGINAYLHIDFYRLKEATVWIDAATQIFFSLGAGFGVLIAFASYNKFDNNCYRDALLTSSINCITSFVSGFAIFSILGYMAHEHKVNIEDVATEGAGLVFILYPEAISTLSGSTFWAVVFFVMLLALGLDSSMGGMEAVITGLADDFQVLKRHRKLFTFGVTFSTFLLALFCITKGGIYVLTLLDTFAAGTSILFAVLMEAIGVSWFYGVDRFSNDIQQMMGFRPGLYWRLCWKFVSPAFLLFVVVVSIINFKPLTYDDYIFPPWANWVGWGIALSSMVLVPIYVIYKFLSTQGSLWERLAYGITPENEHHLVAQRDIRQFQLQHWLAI
T1 sequence (P41144 whole entry): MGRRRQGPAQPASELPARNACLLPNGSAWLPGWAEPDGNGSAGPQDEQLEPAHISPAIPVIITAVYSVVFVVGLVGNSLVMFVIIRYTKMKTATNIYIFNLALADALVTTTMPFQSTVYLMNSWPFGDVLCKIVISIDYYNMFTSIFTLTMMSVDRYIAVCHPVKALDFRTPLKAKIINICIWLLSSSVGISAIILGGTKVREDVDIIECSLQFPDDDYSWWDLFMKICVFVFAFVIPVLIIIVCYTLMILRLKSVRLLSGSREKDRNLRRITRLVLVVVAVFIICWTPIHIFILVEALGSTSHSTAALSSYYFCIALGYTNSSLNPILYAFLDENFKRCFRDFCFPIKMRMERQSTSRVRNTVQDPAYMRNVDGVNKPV

In general, inhibition refers to the drop in the measured response relative to a control, in per cent. For `COc1ccc(C/C(=C/F)CN)cc1.Cl` [Compound I-1-Z, (Z)-3-Fluoro-2-(4-methoxybenzyl)-allylamine hydrochloride], the inhibition at 10 µM in [1] was -18%; in assay [2], -19%; in [3] it was 3%; in assay [4], 1%; in assay [5], 68%; in [6], -2%. For the same compound, the inhibition at 10 µM turned out to be 47% in assay [7]; 34% in [8]; 38% in [9]; 28% in assay [10]; 10% in [11].
